Assay results taken from publication PMC8217266 (Clinical Pharmacology and Therapeutics, 2021).

Assays:
[1] = molecular target: human MATE2 (Homo sapiens, UniProt Q86VL8); test: cell-based
[2] = molecular target: T1, human OCT1 (Homo sapiens, UniProt O15245); test: cell-based
T1 sequence (O15245 1-554): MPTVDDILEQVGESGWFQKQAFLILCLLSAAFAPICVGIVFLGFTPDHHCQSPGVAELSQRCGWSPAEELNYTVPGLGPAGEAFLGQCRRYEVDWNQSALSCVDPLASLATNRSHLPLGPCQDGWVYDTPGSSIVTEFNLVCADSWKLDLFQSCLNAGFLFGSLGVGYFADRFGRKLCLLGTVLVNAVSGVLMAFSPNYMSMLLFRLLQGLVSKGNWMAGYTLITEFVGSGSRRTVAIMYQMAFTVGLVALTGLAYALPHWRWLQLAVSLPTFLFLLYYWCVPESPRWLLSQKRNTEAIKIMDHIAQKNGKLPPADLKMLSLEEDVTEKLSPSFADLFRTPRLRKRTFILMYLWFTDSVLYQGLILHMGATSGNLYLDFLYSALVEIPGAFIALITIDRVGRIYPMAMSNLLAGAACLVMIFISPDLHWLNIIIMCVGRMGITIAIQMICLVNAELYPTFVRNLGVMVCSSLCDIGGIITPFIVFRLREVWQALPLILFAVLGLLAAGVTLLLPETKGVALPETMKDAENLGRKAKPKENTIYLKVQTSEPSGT

[3] = molecular target: T2, human OAT1 (Homo sapiens, UniProt Q4U2R8); test: cell-based
T2 sequence (Q4U2R8 1-563): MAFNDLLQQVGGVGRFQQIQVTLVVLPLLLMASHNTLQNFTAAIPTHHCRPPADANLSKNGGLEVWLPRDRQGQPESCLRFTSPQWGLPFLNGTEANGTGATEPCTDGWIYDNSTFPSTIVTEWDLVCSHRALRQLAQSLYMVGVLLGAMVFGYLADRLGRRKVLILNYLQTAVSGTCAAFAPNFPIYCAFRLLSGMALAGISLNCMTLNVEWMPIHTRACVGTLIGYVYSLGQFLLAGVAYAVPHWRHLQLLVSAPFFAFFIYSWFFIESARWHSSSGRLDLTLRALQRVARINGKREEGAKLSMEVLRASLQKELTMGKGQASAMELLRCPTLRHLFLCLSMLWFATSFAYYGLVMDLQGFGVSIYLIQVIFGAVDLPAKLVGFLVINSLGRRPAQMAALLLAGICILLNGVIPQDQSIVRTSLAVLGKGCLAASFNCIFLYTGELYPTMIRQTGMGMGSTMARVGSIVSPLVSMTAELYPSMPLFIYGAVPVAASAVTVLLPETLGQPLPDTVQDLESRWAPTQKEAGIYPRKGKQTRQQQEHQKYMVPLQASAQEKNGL

[4] = molecular target: T3, human OAT3 (Homo sapiens, UniProt Q8TCC7); test: cell-based
T3 sequence (Q8TCC7 1-542): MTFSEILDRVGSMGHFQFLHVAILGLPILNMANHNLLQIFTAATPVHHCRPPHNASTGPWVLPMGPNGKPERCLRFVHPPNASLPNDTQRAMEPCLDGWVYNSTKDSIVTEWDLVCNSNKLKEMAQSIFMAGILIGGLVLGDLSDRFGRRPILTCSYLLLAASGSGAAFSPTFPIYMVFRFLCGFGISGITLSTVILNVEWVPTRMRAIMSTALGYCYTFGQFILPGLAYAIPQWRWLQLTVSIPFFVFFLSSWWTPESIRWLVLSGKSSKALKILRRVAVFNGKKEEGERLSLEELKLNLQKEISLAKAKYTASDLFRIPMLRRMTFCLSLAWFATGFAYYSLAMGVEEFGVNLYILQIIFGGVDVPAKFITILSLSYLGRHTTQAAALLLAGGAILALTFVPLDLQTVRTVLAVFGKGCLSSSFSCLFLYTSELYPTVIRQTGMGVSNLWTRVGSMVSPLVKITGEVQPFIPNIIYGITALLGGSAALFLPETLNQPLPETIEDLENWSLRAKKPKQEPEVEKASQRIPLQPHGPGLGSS

[5] = molecular target: T4, BCRP (Homo sapiens, UniProt Q9UNQ0); test: biochemical
T4 sequence (Q9UNQ0 1-655): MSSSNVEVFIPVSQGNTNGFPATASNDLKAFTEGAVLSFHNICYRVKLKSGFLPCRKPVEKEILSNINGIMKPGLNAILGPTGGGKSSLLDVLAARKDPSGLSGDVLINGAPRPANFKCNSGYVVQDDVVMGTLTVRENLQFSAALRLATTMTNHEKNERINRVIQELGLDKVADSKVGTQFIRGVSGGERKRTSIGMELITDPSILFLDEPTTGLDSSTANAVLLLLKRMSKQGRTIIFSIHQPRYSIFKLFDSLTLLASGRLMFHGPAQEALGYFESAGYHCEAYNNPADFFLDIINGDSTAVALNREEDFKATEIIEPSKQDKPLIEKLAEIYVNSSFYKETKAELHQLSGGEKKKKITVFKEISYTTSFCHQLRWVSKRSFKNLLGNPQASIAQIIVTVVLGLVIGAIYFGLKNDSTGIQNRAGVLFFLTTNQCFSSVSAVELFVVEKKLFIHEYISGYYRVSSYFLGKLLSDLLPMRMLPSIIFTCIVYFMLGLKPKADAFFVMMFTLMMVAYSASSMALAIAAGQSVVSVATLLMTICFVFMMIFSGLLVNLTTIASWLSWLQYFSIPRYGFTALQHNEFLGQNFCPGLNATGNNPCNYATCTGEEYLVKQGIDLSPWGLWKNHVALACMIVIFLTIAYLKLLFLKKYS

[6] = molecular target: P-gp (Homo sapiens, UniProt P08183); test: biochemical
P-gp, sequence (P08183 whole entry): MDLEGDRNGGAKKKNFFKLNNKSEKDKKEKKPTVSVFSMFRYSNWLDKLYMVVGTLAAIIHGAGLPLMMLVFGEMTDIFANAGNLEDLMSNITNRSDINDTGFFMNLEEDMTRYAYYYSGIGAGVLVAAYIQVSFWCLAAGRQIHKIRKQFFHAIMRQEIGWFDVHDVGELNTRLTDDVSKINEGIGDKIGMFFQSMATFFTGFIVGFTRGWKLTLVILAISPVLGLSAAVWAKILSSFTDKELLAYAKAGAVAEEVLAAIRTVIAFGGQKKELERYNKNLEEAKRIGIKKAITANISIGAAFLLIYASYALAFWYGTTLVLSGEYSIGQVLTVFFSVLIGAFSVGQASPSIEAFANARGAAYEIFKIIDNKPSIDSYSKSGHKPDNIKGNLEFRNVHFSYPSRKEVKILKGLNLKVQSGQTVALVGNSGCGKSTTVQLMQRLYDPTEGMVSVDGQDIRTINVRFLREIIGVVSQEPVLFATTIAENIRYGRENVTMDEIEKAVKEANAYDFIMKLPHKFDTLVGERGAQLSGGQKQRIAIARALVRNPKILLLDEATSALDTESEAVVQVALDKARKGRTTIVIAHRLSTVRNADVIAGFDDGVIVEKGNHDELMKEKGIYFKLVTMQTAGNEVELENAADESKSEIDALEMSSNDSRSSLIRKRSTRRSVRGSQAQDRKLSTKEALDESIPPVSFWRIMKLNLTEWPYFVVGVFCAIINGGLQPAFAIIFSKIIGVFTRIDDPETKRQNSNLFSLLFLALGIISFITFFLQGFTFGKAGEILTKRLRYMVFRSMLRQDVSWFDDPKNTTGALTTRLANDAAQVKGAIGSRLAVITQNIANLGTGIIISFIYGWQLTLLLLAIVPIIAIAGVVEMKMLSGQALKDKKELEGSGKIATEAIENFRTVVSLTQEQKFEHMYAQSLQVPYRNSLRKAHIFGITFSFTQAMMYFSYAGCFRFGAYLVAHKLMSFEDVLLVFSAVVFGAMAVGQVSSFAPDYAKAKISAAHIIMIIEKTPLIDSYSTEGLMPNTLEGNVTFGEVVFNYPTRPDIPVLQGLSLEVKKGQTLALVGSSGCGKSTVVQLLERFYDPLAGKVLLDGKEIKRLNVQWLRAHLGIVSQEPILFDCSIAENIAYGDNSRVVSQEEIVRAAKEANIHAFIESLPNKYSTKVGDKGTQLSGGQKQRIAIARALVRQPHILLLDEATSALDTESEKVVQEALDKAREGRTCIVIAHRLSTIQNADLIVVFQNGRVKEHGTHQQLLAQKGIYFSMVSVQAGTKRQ

[7] = test system: transporters at major organ sites; test: Prediction of transporter-mediated inhibition / DDI potential; parameters: species or system human; conditions: of 11 transporters; FDA criteria
[8] = test system: triglycerides, LDL cholesterol, and total cholesterol, biomarkers of OCT1 activity; test: UCSF EHR analysis: lipid levels in patients with HIV, on vs off drug; type: in vivo, human
[9] = molecular target: T5, human MATE1 (Homo sapiens, UniProt Q96FL8); test: cell-based
T5 sequence (Q96FL8 1-570): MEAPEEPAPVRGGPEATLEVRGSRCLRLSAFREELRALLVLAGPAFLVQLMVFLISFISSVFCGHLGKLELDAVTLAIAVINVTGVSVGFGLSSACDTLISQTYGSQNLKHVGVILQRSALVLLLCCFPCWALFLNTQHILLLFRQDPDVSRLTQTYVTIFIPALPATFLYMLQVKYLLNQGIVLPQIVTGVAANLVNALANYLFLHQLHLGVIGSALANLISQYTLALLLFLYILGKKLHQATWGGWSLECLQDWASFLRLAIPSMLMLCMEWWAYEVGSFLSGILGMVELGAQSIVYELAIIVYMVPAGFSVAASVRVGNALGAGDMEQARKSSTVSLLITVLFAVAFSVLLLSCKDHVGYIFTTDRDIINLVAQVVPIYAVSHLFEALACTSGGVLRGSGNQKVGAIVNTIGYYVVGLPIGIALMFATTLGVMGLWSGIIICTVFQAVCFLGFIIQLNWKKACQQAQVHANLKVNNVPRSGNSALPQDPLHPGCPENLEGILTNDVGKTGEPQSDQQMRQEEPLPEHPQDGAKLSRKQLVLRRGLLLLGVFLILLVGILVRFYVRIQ

[10] = molecular target: T3, human OAT3; conditions: human

human MATE2, sequence (Q86VL8 1-566 isoform Q86VL8-3): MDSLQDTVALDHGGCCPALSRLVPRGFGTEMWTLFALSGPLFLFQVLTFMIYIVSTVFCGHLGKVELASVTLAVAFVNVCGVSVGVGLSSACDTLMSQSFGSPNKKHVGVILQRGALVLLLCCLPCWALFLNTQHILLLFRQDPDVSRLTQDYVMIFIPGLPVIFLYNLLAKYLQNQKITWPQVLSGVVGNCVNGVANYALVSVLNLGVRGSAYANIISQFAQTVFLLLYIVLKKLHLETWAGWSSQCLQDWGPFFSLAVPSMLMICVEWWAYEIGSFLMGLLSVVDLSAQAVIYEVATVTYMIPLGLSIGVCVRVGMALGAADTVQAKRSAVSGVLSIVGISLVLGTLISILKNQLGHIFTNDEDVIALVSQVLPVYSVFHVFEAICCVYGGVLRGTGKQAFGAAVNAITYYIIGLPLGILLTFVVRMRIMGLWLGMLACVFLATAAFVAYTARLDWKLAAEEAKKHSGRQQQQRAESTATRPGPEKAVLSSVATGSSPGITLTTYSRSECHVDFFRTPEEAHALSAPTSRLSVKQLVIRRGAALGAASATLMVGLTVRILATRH

## CN(C)C(=O)COC(=O)Cc1ccc(OC(=O)c2ccc(NC(=N)N)cc2)cc1 [Camostat]
[1]
  IC50: 2 ± 1.3 µM
[2]
  IC50: 20.3 ± 21.3 µM
[3]
  IC50: > 100 µM
[4]
  IC50: > 100 µM
[5]
  IC50: > 100 µM
[6]
  IC50: 35 µM
[7]
  No. of transporters at major organ sites inhibited at clinical concentrations: 1

## CC(C)c1nc(CN(C)C(=O)N[C@H](C(=O)N[C@@H](Cc2ccccc2)C[C@H](O)[C@H](Cc2ccccc2)NC(=O)OCc2cncs2)C(C)C)cs1 [Ritonavir]
[8]; matched 1:1, n=719 each, off drug 99.5, P 0.0033
  LDL cholesterol, Average On drug: 106/99.5 mg/dL
[8]; matched 1:1, n=782 each, off drug 162, P 7.8E-12
  Triglyceride, Average On drug: 252/162 mg/dL
[8]; matched 1:1, n=803 each, off drug 168, P 3.1E-13
  Total cholesterol, Average On drug: 190/168 mg/dL
[8]; matched 1:1, off drug 96
  LDL cholesterol, Median On drug: 101/96 mg/dL
[8]; matched 1:1, off drug 124
  Triglyceride, Median On drug: 156/124 mg/dL
[8]; matched 1:1, off drug 165
  Total cholesterol, Median On drug: 182/165 mg/dL

## CCOC(=O)C1=C[C@@H](OC(CC)CC)[C@H](NC(C)=O)[C@@H](N)C1 [Oseltamivir]
[1]
  IC50: > 100 µM
[2]
  IC50: > 100 µM
[3]
  IC50: 90 µM
[4]
  IC50: > 100 µM
[5]
  IC50: > 100 µM
[6]
  IC50: 44 µM
[9]
  IC50: > 100 µM
[7]
  No. of transporters at major organ sites inhibited at clinical concentrations: 1

## O=C1CCC(N2C(=O)c3ccccc3C2=O)C(=O)N1 (stereo not drawn) [Thalidomide]
[1]
  IC50: > 100 µM
[2]
  IC50: > 100 µM
[10]
  Cu,max/IC50 OAT3: 0.08
[3]
  IC50: > 100 µM
[4]
  IC50: 54.6 ± 2.4 µM
[5]
  IC50: > 100 µM
[6]
  IC50: 65 µM
[9]
  IC50: > 100 µM
[7]
  No. of transporters at major organ sites inhibited at clinical concentrations: 1

## CCN(CCO)CCCC(C)Nc1ccnc2cc(Cl)ccc12 (stereo not drawn) [Hydroxychloroquine]
[1]
  IC50: 0.8 ± 0.1 µM
[2]
  IC50: 20 ± 15.9 µM
[3]
  IC50: > 100 µM
[4]
  IC50: > 100 µM
[5]
  IC50: > 100 µM
[6]
  IC50: 51.8 ± 20.6 µM
[9]
  IC50: 1.9 ± 0.3 µM
[7]
  No. of transporters at major organ sites inhibited at clinical concentrations: 4

## CCCCCCCCc1ccc(CCC(N)(CO)CO)cc1 [Fingolimod]
[1]
  IC50: > 100 µM
[2]
  IC50: > 100 µM
[3]
  IC50: 64 µM
[4]
  IC50: > 100 µM
[5]
  IC50: > 100 µM
[6]
  IC50: 89 µM
[9]
  IC50: > 100 µM
[7]
  No. of transporters at major organ sites inhibited at clinical concentrations: 0

## CCN(CC)CCCC(C)Nc1ccnc2cc(Cl)ccc12 (stereo not drawn) [Chloroquine]
[1]
  IC50: 0.7 ± 0.2 µM
[2]
  IC50: 10.7 ± 10.4 µM
[3]
  IC50: > 100 µM
[4]
  IC50: > 100 µM
[9]
  IC50: 0.8 ± 0.8 µM
[7]
  No. of transporters at major organ sites inhibited at clinical concentrations: 4

## NC(=O)c1nc(F)c[nH]c1=O [Favipiravir]
[1]
  IC50: > 100 µM
[2]
  IC50: > 100 µM
[10]
  Cu,max/IC50 OAT3: 3.21
[3]
  IC50: 52 µM
[4]
  IC50: 84.2 ± 19.5 µM
[5]
  IC50: > 100 µM
[6]
  IC50: 55 µM
[9]
  IC50: > 100 µM
[7]
  No. of transporters at major organ sites inhibited at clinical concentrations: 3

## COc1cc2c(c(OC)c1OC)-c1ccc(OC)c(=O)cc1[C@@H](NC(C)=O)CC2 [Colchicine]
[1]
  IC50: > 100 µM
[4]
  IC50: > 100 µM
[5]
  IC50: > 100 µM
[6]
  IC50: 42 µM
[9]
  IC50: > 100 µM

## Cc1cccc(C)c1OCC(=O)N[C@@H](Cc1ccccc1)[C@@H](O)C[C@H](Cc1ccccc1)NC(=O)[C@H](C(C)C)N1CCCNC1=O [Lopinavir]
[1]
  IC50: 25.1 ± 9.6 µM
[2]
  IC50: > 100 µM
[3]
  IC50: > 100 µM
[4]
  IC50: > 100 µM
[9]
  IC50: 22.5 ± 4 µM
[7]
  No. of transporters at major organ sites inhibited at clinical concentrations: 5

## CCS(=O)(=O)N1CC(CC#N)(n2cc(-c3ncnc4[nH]ccc34)cn2)C1 [Baricitinib]
[1]
  IC50: 6.7 ± 5.6 µM
[2]
  IC50: 22.9 ± 18 µM
[3]
  IC50: > 50 µM
[4]
  IC50: 12.7 ± 5 µM
[5]
  IC50: > 50 µM
[6]
  IC50: > 50 µM
[9]
  IC50: 36 ± 24 µM

## NC(=O)c1ncn([C@@H]2O[C@H](CO)[C@@H](O)[C@H]2O)n1 [Ribavirin]
[1]
  IC50: > 100 µM
[2]
  IC50: > 100 µM
[3]
  IC50: 99 µM
[4]
  IC50: > 100 µM
[5]
  IC50: > 100 µM
[6]
  IC50: 47 µM
[9]
  IC50: > 100 µM
[7]
  No. of transporters at major organ sites inhibited at clinical concentrations: 2

## C[C@@H]1CCN(C(=O)CC#N)C[C@@H]1N(C)c1ncnc2[nH]ccc12 [Tofacitinib]
[1]
  IC50: 68.5 ± 6.2 µM
[2]
  IC50: 41.4 ± 13 µM
[3]
  IC50: 89 µM
[4]
  IC50: 51.6 ± 7 µM
[5]
  IC50: > 100 µM
[6]
  IC50: > 100 µM
[9]
  IC50: 1 ± 0.5 µM
[7]
  No. of transporters at major organ sites inhibited at clinical concentrations: 1

## COc1cc2nc(N3CCN(C(=O)c4ccco4)CC3)nc(N)c2cc1OC [Prazosin]
[1]
  IC50: 2.4 ± 0.9 µM
[2]
  IC50: 1.8 ± 2 µM
[3]
  IC50: > 100 µM
[5]
  IC50: > 100 µM
